Assay results: ChEMBL document CHEMBL1126757, “Benzoquinazoline inhibitors of thymidylate synthase: enzyme inhibitory activity and cytotoxicity of some 3-amino- and 3-methylbenzo[f]quinazolin-1(2H)-ones” (J Med Chem, 1993)

target: Thymidylate synthase (Escherichia coli) (UniProt C3SWJ7); assay: Tested for percent inhibition against thymidylate synthase (TS) in Escherichia coli at 764.0 uM; settings: not given
Sequence (C3SWJ7 1-264): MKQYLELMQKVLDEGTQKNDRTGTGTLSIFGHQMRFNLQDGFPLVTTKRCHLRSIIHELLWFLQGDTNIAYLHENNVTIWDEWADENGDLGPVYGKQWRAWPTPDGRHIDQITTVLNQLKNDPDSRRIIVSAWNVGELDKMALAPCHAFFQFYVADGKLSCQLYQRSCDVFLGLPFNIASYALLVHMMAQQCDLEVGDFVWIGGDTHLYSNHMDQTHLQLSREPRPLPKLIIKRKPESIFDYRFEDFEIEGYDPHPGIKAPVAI

Compound `Nc1nc(O)c2c(ccc3cc(F)cc([N+](=O)[O-])c32)n1` has an inhibition of 41%.

target: Thymidylate synthase (Escherichia coli) (UniProt C3SWJ7); assay: Tested for percent inhibition against thymidylate synthase (TS) in Escherichia coli at 63.2 uM; settings: not given

Compound `Nc1nc(O)c2c(ccc3c([N+](=O)[O-])cccc32)n1` has an inhibition of 29%.

target: T1, Thymidylate synthase (Homo sapiens, UniProt P04818); assay: Tested for percent inhibition against thymidylate synthase (TS) in human at 63 uM; settings: not given
Target sequence in this assay (P04818 2-313 limits assumed): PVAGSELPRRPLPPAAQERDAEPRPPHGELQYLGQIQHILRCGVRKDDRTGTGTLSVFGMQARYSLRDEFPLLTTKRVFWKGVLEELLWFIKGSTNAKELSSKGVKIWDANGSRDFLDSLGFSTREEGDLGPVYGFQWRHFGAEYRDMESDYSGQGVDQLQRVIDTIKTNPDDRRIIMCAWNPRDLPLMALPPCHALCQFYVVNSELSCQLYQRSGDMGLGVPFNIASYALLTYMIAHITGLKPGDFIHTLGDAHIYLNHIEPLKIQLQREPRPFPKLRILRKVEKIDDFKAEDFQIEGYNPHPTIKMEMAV

Work on `Nc1nc(O)c2c(ccc3c([N+](=O)[O-])cccc32)n1` yielded an inhibition of 23%.

target: T1, Thymidylate synthase; assay: Tested for inhibition against thymidylate synthase (TS) in human; settings: not given
Target sequence in this assay (P04818 whole entry): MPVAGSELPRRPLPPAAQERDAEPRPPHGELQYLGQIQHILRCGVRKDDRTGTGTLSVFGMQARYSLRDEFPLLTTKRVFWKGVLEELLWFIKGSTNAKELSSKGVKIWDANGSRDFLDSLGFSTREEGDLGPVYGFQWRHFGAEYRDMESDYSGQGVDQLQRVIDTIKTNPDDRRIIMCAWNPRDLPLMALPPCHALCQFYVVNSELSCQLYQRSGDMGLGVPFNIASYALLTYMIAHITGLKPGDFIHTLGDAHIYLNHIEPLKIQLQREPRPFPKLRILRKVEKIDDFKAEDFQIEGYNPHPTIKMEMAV

`Nc1nc2c(c(=O)[nH]1)-c1cc(Cl)c(Cl)cc1CC2` was tested, and the IC50 was 2.96 µM.

same assay, conditions: read-out: I50

In the case of `COc1ccc2ccc3nc(N)nc(O)c3c2c1`, the IC50 is reported as 1.6 µM.

test system: Thymidylate synthase (Candida albicans); assay: Tested for percent inhibition against thymidylate synthase (TS) in Candida albicans at 63.2 uM; settings: not given

For `Nc1nc(O)c2c(ccc3c([N+](=O)[O-])cccc32)n1`, the inhibition was 0%.

test system: SW480; assay: cells; settings: Homo sapiens

`Oc1nc(NCc2ccccc2)nc2ccc3c(Br)cccc3c12` and `Cc1nc(O)c2c(ccc3c(Br)cccc32)n1` are within 1.5-fold of each other in IC50: 60 µM for the first, 50 µM for the second.

`Cc1nc(O)c2c(ccc3c(Cl)cccc32)n1` and `Cc1cccc2c1ccc1nc(N)nc(O)c12` are within 1.5-fold of each other in IC50: 50 µM for the first, 35 µM for the second.

Compared with `Nc1nc(O)c2c(ccc3ccc(Br)c([N+](=O)[O-])c32)n1`, `Nc1nc(O)c2c(ccc3ccc(Br)c(N)c32)n1` is 1.5-fold higher in IC50: 20 µM for the first, 30 µM for the second. The first is the more potent here.

Compared with `Nc1nc(O)c2c(n1)CCc1ccc(Br)cc1-2`, `Nc1nc(O)c2c(n1)CCc1ccc(I)cc1-2` is 1.7-fold lower in IC50: 25 µM for the first, 15 µM for the second.

Compared with `C#Cc1ccc2c(c1)-c1c(nc(N)[nH]c1=O)CC2`, `Nc1nc2c(c(=O)[nH]1)-c1cc(O)ccc1CC2` is higher in IC50: 35 µM for the first, over 100 µM for the second. The first is the more potent here.

First: Cc1nc2c(c(=O)[nH]1)-c1cc(Br)ccc1CC2
Second: Cc1nc2c(c(=O)[nH]1)-c1cc(Cl)ccc1CC2
The IC50 of the first is lower: 65 µM for the first, over 100 µM for the second. The first is the more potent here.

`Nc1ccc2ccc3nc(N)nc(O)c3c2c1` and `Nc1ccc2c(ccc3nc(N)nc(O)c32)c1` are within 1.5-fold of each other in IC50: 80 µM for the first, 100 µM for the second.

Compared with `Nc1nc(O)c2c(ccc3c(N)cccc32)n1`, `Cc1ccc2ccc3nc(N)nc(O)c3c2c1` is lower in IC50: over 100 µM for the first, 30 µM for the second.

First: Nc1nc(O)c2c(ccc3c([N+](=O)[O-])c(F)ccc32)n1
Second: Nc1nc(O)c2c(ccc3ccc(F)cc32)n1
The IC50 of the first is 3-fold higher: 30 µM for the first, 10 µM for the second.

First: COCc1cc2nc(N)nc(O)c2c2ccccc12
Second: Nc1nc(O)c2c(cc(CO)c3ccccc32)n1
The IC50 of the first is lower: 60 µM for the first, over 100 µM for the second.

`Nc1nc2c(c(=O)[nH]1)-c1cc(Br)c([N+](=O)[O-])cc1CC2` and `Nc1nc2c(c(=O)[nH]1)-c1cc(Br)c(N)cc1CC2` are within 1.5-fold of each other in IC50: 12 µM for the first, 15 µM for the second.

`Cc1nc(O)c2c(n1)CCc1ccc(F)cc1-2` and `Nc1nc(O)c2c(n1)CCc1ccccc1-2` cannot be ordered by IC50: over 100 µM for the first, over 100 µM for the second.

`COc1ccc2ccc3nc(N)nc(O)c3c2c1` and `CCOc1ccc2ccc3nc(N)nc(O)c3c2c1` are the same in IC50: 20 µM for the first, 20 µM for the second.

`Cc1nc2c(c(=O)[nH]1)-c1cccc(Cl)c1CC2` and `Cc1nc2c(c(=O)[nH]1)-c1ccccc1CC2` cannot be ordered by IC50: over 100 µM for the first, over 100 µM for the second.

First: Nc1nc2ccc3c(F)cccc3c2c(=O)[nH]1
Second: Nc1nc2ccc3c(I)cccc3c2c(=O)[nH]1
The IC50 of the first is 3-fold higher: 30 µM for the first, 10 µM for the second. The second is the more potent here.

First: Nc1nc2ccc3cc([N+](=O)[O-])c(Br)cc3c2c(=O)[nH]1
Second: Nc1nc2ccc3cc(Cl)c(Cl)cc3c2c(=O)[nH]1
The IC50 of the first is 8-fold lower: 2.5 µM for the first, 20 µM for the second.

Going from `Nc1nc2ccc3cccc([N+](=O)[O-])c3c2c(=O)[nH]1` to `Nc1nc2ccc3c(N)c(Br)ccc3c2c(=O)[nH]1`, the IC50 falls from over 100 µM to 20 µM. The second is the more potent here.

First: Nc1nc2c(c(=O)[nH]1)-c1ccc(F)cc1CC2
Second: Nc1nc2c(c(=O)[nH]1)-c1cc(Cl)ccc1CC2
The IC50 of the first is 3.2-fold higher: 80 µM for the first, 25 µM for the second. The second is the more potent here.

Going from `O=CNc1nc(O)c2c(ccc3ccc(Br)cc32)n1` to `Cc1nc(O)c2c(ccc3ccc(F)cc32)n1`, the IC50 rises from 7 µM to 100 µM (14-fold). The first is the more potent here.

First: Nc1nc(O)c2c(ccc3cc(N)c(Br)cc32)n1
Second: Nc1nc(O)c2c(ccc3cc(F)cc(N)c32)n1
The IC50 of the first is 4.7-fold lower: 15 µM for the first, 70 µM for the second. The first is the more potent here.

Going from `Nc1nc(O)c2c(ccc3cc(F)cc([N+](=O)[O-])c32)n1` to `Nc1nc(O)c2c(ccc3ccc(I)cc32)n1`, the IC50 falls from 50 µM to 5 µM (10-fold).

Compared with `C=Cc1ccc2ccc3nc(N)nc(O)c3c2c1`, `CCSc1ccc2c(c1)-c1c(nc(N)[nH]c1=O)CC2` is 6.7-fold higher in IC50: 6 µM for the first, 40 µM for the second.

target: T2, Thymidylate synthase (Escherichia coli, UniProt C3SWJ7); assay: Inhibition against thymidylate synthase (TS) in Escherichia coli; settings: read-out: I50
T2 sequence (C3SWJ7 whole entry): as the sequence (C3SWJ7 1-264) above

In order of rising IC50:
1. Nc1nc(O)c2c(ccc3ccc(I)cc32)n1  0.323 µM
2. Nc1ccc2ccc3nc(N)nc(O)c3c2c1  0.6 µM
3. Oc1nc(NCc2ccccc2)nc2ccc3c(Br)cccc3c12  0.63 µM
4. Nc1nc(O)c2c(ccc3ccc(Br)c(N)c32)n1  0.64 µM
5. C=Cc1ccc2ccc3nc(N)nc(O)c3c2c1  1.1 µM
6. Cc1ccc2ccc3nc(N)nc(O)c3c2c1  1.47 µM
7. Nc1nc2c(c(=O)[nH]1)-c1cc(Cl)ccc1CC2  1.6 µM
8. Nc1nc(O)c2c(n1)CCc1ccc(Br)cc1-2  2 µM
9. Nc1nc(O)c2c(ccc3ccc(F)cc32)n1  2.4 µM
10. Nc1nc(O)c2c(ccc3cc(N)c(Br)cc32)n1  2.8 µM
11. Nc1nc2c(c(=O)[nH]1)-c1cc(Br)c(N)cc1CC2  2.9 µM
12. COc1ccc2ccc3nc(N)nc(O)c3c2c1  5 µM
13. Nc1nc(O)c2c(n1)CCc1ccc(I)cc1-2  5 µM
14. Nc1nc2ccc3cc(Cl)c(Cl)cc3c2c(=O)[nH]1  5.4 µM
15. Nc1nc2ccc3c(I)cccc3c2c(=O)[nH]1  6.3 µM
16. Nc1nc2c(c(=O)[nH]1)-c1cc(Cl)c(Cl)cc1CC2  6.7 µM
17. Nc1nc(O)c2c(n1)CCc1ccccc1-2  7 µM
18. Cc1nc2c(c(=O)[nH]1)-c1cc(Br)ccc1CC2  8.69 µM
19. Nc1nc2ccc3cccc([N+](=O)[O-])c3c2c(=O)[nH]1  9.8 µM
20. Nc1nc2c(c(=O)[nH]1)-c1cc(O)ccc1CC2  12 µM
21. Cc1cccc2c1ccc1nc(N)nc(O)c12  18.1 µM
22. C#Cc1ccc2c(c1)-c1c(nc(N)[nH]c1=O)CC2  26.3 µM
23. Nc1nc2ccc3cc([N+](=O)[O-])c(Br)cc3c2c(=O)[nH]1  31 µM
24. CCSc1ccc2c(c1)-c1c(nc(N)[nH]c1=O)CC2  31.7 µM
25. Cc1nc(O)c2c(n1)CCc1ccc(F)cc1-2  32.8 µM
26. Nc1nc(O)c2c(ccc3c(N)cccc32)n1  39 µM
27. Nc1nc(O)c2c(ccc3cc(F)cc(N)c32)n1  47.1 µM
28. Nc1nc2c(c(=O)[nH]1)-c1cc(Br)c([N+](=O)[O-])cc1CC2  97.5 µM
29. Nc1nc(O)c2c(cc(CO)c3ccccc32)n1  102 µM
30. Cc1nc2c(c(=O)[nH]1)-c1ccccc1CC2  119 µM
31. Nc1nc2ccc3c(F)cccc3c2c(=O)[nH]1  208 µM
32. Nc1nc(O)c2c(ccc3c([N+](=O)[O-])c(F)ccc32)n1  403 µM
33. Nc1nc2c(c(=O)[nH]1)-c1ccc(F)cc1CC2  750 µM

target: T2, Thymidylate synthase; assay: Tested against thymidylate synthase (TS) in E. coli; settings: read-out: I50

In order of rising IC50:
1. Cc1nc2c(c(=O)[nH]1)-c1cc(Cl)ccc1CC2  18.8 µM
2. Cc1nc(O)c2c(ccc3ccc(F)cc32)n1  29.6 µM

target: T1, Thymidylate synthase; assay: not given; settings: not given
Target sequence in this assay (P04818 whole entry): as the sequence (P04818 whole entry) above

In order of rising IC50:
1. Nc1nc(O)c2c(ccc3ccc(I)cc32)n1  0.022 µM
2. C=Cc1ccc2ccc3nc(N)nc(O)c3c2c1  0.12 µM
3. Cc1ccc2ccc3nc(N)nc(O)c3c2c1  0.178 µM
4. Nc1nc(O)c2c(ccc3ccc(Br)c([N+](=O)[O-])c32)n1  0.23 µM
5. Nc1nc(O)c2c(ccc3cc(N)c(Br)cc32)n1  0.34 µM
6. Nc1nc(O)c2c(ccc3ccc(Br)c(N)c32)n1  0.36 µM
7. Nc1nc(O)c2c(ccc3ccc(F)cc32)n1  0.5 µM
8. Oc1nc(NCc2ccccc2)nc2ccc3c(Br)cccc3c12  0.52 µM
9. O=CNc1nc(O)c2c(ccc3ccc(Br)cc32)n1  0.54 µM
10. Nc1ccc2ccc3nc(N)nc(O)c3c2c1  0.63 µM
11. Nc1nc2ccc3cc(Cl)c(Cl)cc3c2c(=O)[nH]1  0.71 µM
12. Nc1nc2ccc3c(I)cccc3c2c(=O)[nH]1  1.31 µM
13. Nc1nc2ccc3cccc([N+](=O)[O-])c3c2c(=O)[nH]1  2.31 µM
14. Nc1nc2ccc3cc([N+](=O)[O-])c(Br)cc3c2c(=O)[nH]1  3.12 µM
15. CCOc1ccc2ccc3nc(N)nc(O)c3c2c1  4.2 µM
16. Cc1cccc2c1ccc1nc(N)nc(O)c12  7.5 µM
17. Nc1ccc2c(ccc3nc(N)nc(O)c32)c1  7.5 µM
18. Nc1nc2c(c(=O)[nH]1)-c1cc(O)ccc1CC2  8.4 µM
19. Nc1nc(O)c2c(cc(CO)c3ccccc32)n1  8.6 µM
20. COCc1cc2nc(N)nc(O)c2c2ccccc12  15 µM
21. Nc1nc(O)c2c(ccc3c(N)cccc32)n1  15.2 µM
22. Nc1nc2ccc3c(N)c(Br)ccc3c2c(=O)[nH]1  16.8 µM
23. Nc1nc2ccc3c(F)cccc3c2c(=O)[nH]1  25 µM
24. Nc1nc(O)c2c(ccc3cc(F)cc(N)c32)n1  73.8 µM
25. Cc1nc2c(c(=O)[nH]1)-c1cccc(Cl)c1CC2  193 µM
26. Nc1nc(O)c2c(ccc3c([N+](=O)[O-])c(F)ccc32)n1  552 µM
